Measurements published in PubChem BioAssay (NCI).
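Following 48 hours of exposure in 96-well plates, responses at five concentrations were used to interpolate endpoints linearly. GI50 is the concentration that inhibits growth by half. At the TGI there is no net growth.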

What was measured:
Assay in all cases: NCI tumour cell line growth inhibition, 48 h
[1] = test system: MDA-MB-231 breast
[2] = test system: SF-539 CNS
[3] = test system: LOX IMVI melanoma
[4] = test system: CCRF-CEM leukemia
[5] = test system: SK-MEL-2 melanoma
[6] = test system: NCI-H522 lung
[7] = test system: UACC-62 melanoma
[8] = test system: HS 578T breast
[9] = test system: RXF 393 renal
[10] = test system: SN12C renal
[11] = test system: SNB-75 CNS
[12] = test system: A498 renal
[13] = test system: TK-10 renal
[14] = test system: 786-0 renal
[15] = test system: HT29 colon
[16] = test system: A549 NSCLC
[17] = test system: MOLT-4 leukemia
[18] = test system: HOP-62 NSCLC
[19] = test system: MALME-3M melanoma
[20] = test system: HCC-2998 colon
[21] = test system: SK-MEL-28 melanoma
[22] = test system: UACC-257 melanoma
[23] = test system: SW-620 colon
[24] = test system: IGROV1 ovarian
[25] = test system: COLO 205 colon
[26] = test system: ACHN renal
[27] = test system: NCI-H460 lung
[28] = test system: HOP-92 NSCLC
[29] = test system: NCI-H226 lung
[30] = test system: BT-549 breast
[31] = test system: KM12 colon
[32] = test system: OVCAR-3 ovarian
[33] = test system: DU-145 prostate
[34] = test system: UO-31 renal
[35] = test system: MCF7 breast
[36] = test system: PC-3 prostate
[37] = test system: NCI-H23 lung
[38] = test system: HCT-15 colon
[39] = test system: MDA-MB-435
[40] = test system: OVCAR-8 ovarian
[41] = test system: CAKI-1 renal
[42] = test system: OVCAR-5 ovarian
[43] = test system: SK-MEL-5 melanoma
[44] = test system: U251 CNS
[45] = test system: HL-60(TB) leukemia
[46] = test system: M14 melanoma
[47] = test system: K-562 leukemia
[48] = test system: RPMI-8226 leukemia
[49] = test system: SF-268 CNS

O=c1[nH]c(-c2ccncc2)nc2sc3c(c12)CCCCCC3
GI50 [1]: > 100 µM | TGI [1]: > 100 µM | GI50 [2]: > 100 µM | TGI [2]: > 100 µM | GI50 [3]: > 100 µM | TGI [3]: > 100 µM | GI50 [4]: > 100 µM | TGI [4]: > 100 µM | GI50 [5]: > 100 µM | TGI [5]: > 100 µM | GI50 [6]: > 100 µM | TGI [6]: > 100 µM | GI50 [7]: > 100 µM | TGI [7]: > 100 µM | GI50 [8]: > 100 µM | TGI [8]: > 100 µM | GI50 [9]: > 100 µM | TGI [9]: > 100 µM | GI50 [10]: > 100 µM | TGI [10]: > 100 µM | GI50 [11]: 2.71 µM | TGI [11]: > 100 µM | GI50 [12]: > 100 µM | TGI [12]: > 100 µM | GI50 [13]: > 100 µM | TGI [13]: > 100 µM | GI50 [14]: > 100 µM | TGI [14]: > 100 µM | GI50 [15]: > 100 µM | TGI [15]: > 100 µM | GI50 [16]: > 100 µM | TGI [16]: > 100 µM | GI50 [17]: > 100 µM | TGI [17]: > 100 µM | GI50 [18]: > 100 µM | TGI [18]: > 100 µM | GI50 [19]: > 100 µM | TGI [19]: > 100 µM | GI50 [20]: > 100 µM | TGI [20]: > 100 µM | GI50 [21]: > 100 µM | TGI [21]: > 100 µM | GI50 [22]: > 100 µM | TGI [22]: > 100 µM | GI50 [23]: > 100 µM | TGI [23]: > 100 µM | GI50 [24]: > 100 µM | TGI [24]: > 100 µM | GI50 [25]: > 100 µM | TGI [25]: > 100 µM | GI50 [26]: > 100 µM | TGI [26]: > 100 µM | GI50 [27]: > 100 µM | TGI [27]: > 100 µM | GI50 [28]: > 100 µM | TGI [28]: > 100 µM | GI50 [29]: > 100 µM | TGI [29]: > 100 µM | GI50 [30]: > 100 µM | TGI [30]: > 100 µM | GI50 [31]: > 100 µM | TGI [31]: > 100 µM | GI50 [32]: > 100 µM | TGI [32]: > 100 µM | GI50 [33]: > 100 µM | TGI [33]: > 100 µM | GI50 [34]: > 100 µM | TGI [34]: > 100 µM | GI50 [35]: > 100 µM | TGI [35]: > 100 µM | GI50 [36]: > 100 µM | TGI [36]: > 100 µM | GI50 [37]: > 100 µM | TGI [37]: > 100 µM | GI50 [38]: > 100 µM | TGI [38]: > 100 µM | GI50 [39]: > 100 µM | TGI [39]: > 100 µM | GI50 [40]: > 100 µM | TGI [40]: > 100 µM | GI50 [41]: > 100 µM | TGI [41]: > 100 µM | GI50 [42]: > 100 µM | TGI [42]: > 100 µM | GI50 [43]: > 100 µM | TGI [43]: > 100 µM | GI50 [44]: > 100 µM | TGI [44]: > 100 µM | GI50 [45]: > 100 µM | TGI [45]: > 100 µM | GI50 [46]: > 100 µM | TGI [46]: > 100 µM | GI50 [47]: > 100 µM | TGI [47]: > 100 µM | GI50 [48]: > 100 µM | TGI [48]: > 100 µM | GI50 [49]: > 100 µM | TGI [49]: > 100 µM
